Reference: patent publication US6469028B1, “Synthesis and use of retinoid compounds having negative hormone and/or anatgonist activities” (Allergan, Inc., priority 1995, dated 2002)

How the values were obtained:
RARα = molecular target: T1, RARα (Homo sapiens, UniProt P10276); assay: Example 8: protease protection analysis; format: biochemical; parameters: host or cells: TNT-coupled reticulocyte lysate in vitro transcription-translation; conditions: ATRA and AGN 193109 100 nM, AGN 193583 1000 nM; trypsin 25, 50 or 100 μg/ml, 10 minutes
T1 sequence (P10276 1-462): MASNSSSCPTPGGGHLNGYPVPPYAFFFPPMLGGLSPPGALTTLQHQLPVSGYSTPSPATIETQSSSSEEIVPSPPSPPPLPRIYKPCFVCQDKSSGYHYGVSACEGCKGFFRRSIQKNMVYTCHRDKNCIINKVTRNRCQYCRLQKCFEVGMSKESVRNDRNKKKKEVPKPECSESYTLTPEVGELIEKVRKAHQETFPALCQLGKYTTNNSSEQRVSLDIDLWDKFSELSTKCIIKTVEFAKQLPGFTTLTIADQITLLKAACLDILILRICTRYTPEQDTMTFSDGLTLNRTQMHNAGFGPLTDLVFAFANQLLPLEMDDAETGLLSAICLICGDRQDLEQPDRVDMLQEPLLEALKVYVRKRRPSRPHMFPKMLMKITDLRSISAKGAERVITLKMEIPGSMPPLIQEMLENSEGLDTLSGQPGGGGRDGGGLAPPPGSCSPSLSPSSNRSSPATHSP
Experimental: A plasmid constructed in the vector pGEM3Z (Pharmacia) and containing the RAR-α cDNA (Giguere et al. Nature 330:624 (1987)), was used in connection with the TNT-coupled reticulocyte lysate in vitro transcription-translation system (Promega) to prepare [^35S]-methionine labeled RAR-α. Limited proteolytic digestion of the labeled protein RAR-α was carried out according to the method described by Keidel et al. in Mol. Cell. Biol. 14:287 (1994). […] After ligand binding, 1 μl of appropriately concentrated trypsin was added to the mixture to give final concentrations of 25, 50 or 100 μg/ml. Samples were incubated at room temperature for 10 minutes and trypsin digestion stopped by addition of SDS-sample buffer. Samples were subjected to polyacrylamide gel electrophoresis and autoradiographed according to standard procedures.

[1] = tested on: 1,25-dihydroxyvitamin D3-dependent gene expression; assay: Example 14: 1,25-dihydroxyvitamin D3 transactivation, MTV-VDRE-Luc in HeLa cells; format: cell-based; conditions: AGN 193109 10-100 nM coadministered
Experimental: Hela cells were transfected using the cationic liposome-mediated transfection procedure described by Feigner et al. in Proc. Natl. Acad. Sci. USA 84:7413 (1987). 5×10^4 cells were plated in 12-well multiwell plates and grown in DMEM supplemented with 10% FBS. Cells were cotransfected in serum-free medium using 2 μg/well of LIPOFECTAMINE reagent (Life Technologies, Inc.) with 0.7 μg of the reporter plasmid MTV-VDRE-Luc, containing two copies of the 1,25-dihydroxyvitamin D3 response element [NT] ID NO:4) from the mouse osteopontin gene (Ferrara et al. J. Biol. Chem. 269:2971 (1994)) ligated into the reporter plasmid ΔMTV-Luc (Heyman et al. in Cell 68:397 (1992)), and 0.3 μg of the plasmid pGEM3Z (Pharmacia, Inc.) as carrier DNA to bring the final concentration of DNA to 1.0 μg per well. After six hours of transfection, cells were fed with growth medium containing charcoal extracted FBS at a final concentration of 10%. […] Luciferase activity was measured as described above. This experimental system allowed a convenient method of monitoring and quantitating 1,25-dihydroxyvitamin D3-dependent gene expression.

RXRs = assay: Affinity for the RXRs; format: binding
[2] = tested on: retinal pigment epithelium (RPE) cells; assay: Example 19: proliferation of primary retinal pigment epithelium cultures; format: cell-based, human
Experimental: Primary cultures of human retinal pigment epithelium (RPE) were established according to the method described by Campochiaro et al. in Invest. Opthal & Vis. Sci. 32:65 (1991). 5×10^4 cells were plated in 16-mm wells of 24-well multiwell plates in DMEM (Gibco) containing 5% FBS. […] Cells were fed with fresh media containing the appropriate concentrations of these compounds every two days for a total of five days of treatment. Cells were removed from the plates by gentle digestion with trypsin and the number of cells was counted with an electronic cell counter.
AGN 193109 was tested for its ability to potentiate the anti-proliferative effect of 13-cis retinoic acid (13-cis RA) in primary RPE cultures using conditions and techniques to measure RPE cell proliferation described above. […] More particularly, 13-cis RA is useful in the treatment of several disease states, including acne (Peck et al. N. Engl. J. Med. 300:329 (1977); Jones et al. Br. J. Dermatol. 108:333 (1980)), and squamous cell carcinoma of the skin and cervix in combination treatment with interferon 2α (Lippman et al. J. Natl. Cancer Inst. 84:241 (1992); Moore et al. Seminars in Hematology 31:31 (1994)).
We next tested the ability of AGN 193109 to potentiate the activities of other nuclear receptor hormones in primary RPE cell cultures. Dexamethasone, a synthetic glucocorticoid receptor agonist, is one member of a class of compounds that have been used clinically for their potent anti-inflammatory and immunosuppressive properties. Thyroid hormone (T3; […]) is a natural thyroid hormone receptor agonist used primarily for hormone replacement therapy in the treatment of hypothyroidism.

RAR-γ-VP-16 = RAR-γ-VP-16 activity at the ΔMTV-TREp-Luc reporter; format: cell-based
Excerpt: We have also obtained results which support conclusions identical to those presented under Example 11 by employing RAR-γ-VP-16 and expression constructs and the ΔMTV-TREp-Luc reporter plasmid instead of the RAR-γ-VP-16 and ER-RXR-α expression constructs in combination with the ERE-tk-Luc reporter plasmid. […] Therefore, AGN 193109 repressed RAR-γ-VP-16 activity when this chimeric receptor was directly bound to a retinoic acid receptor response element instead of indirectly bound to an estrogen response element in the promoter region of the reporter plasmid. […] Instead, the critical feature embodied by an experimental system useful for identifying retinoid negative hormones involves detecting the ability of a compound to repress the activity of an RAR engineered to contain a constitutive transcription activation domain.

Cc1ccc(C2=CCC(C)(C)c3ccc(C#Cc4ccc(C(=O)O)cc4)cc32)cc1 [Compound 60, 4-[(5,6-dihydro-5,5-dimethyl-8-(4-methylphenyl)-2-naphthalenyl)ethynyl]benzoic acid]
pattern of trypsin sensitivity of labeled RAR-α after prebinding (RARα): a protease protection pattern that was indistinguishable from that produced by prebinding of ATRA
increase in activity of 1,25-dihydroxyvitamin D3 [1]: approximately 10 fold
affinity for the RXRs (RXRs): no measurable affinity
enhancement of the antiproliferative activity of ATRA ([2]; 10^−10 M ATRA with 10^−7 M AGN 193109 equals 10^−8 M ATRA alone): approximately 100 fold
potency of 13-cis RA in repression of RPE cell proliferation ([2]; AGN 193109 10^−8 or 10^−6M with 13-cis RA 10^−12 to 10^−6M): dramatically increased the potency of 13-cis RA
growth rate of the RPE cells ([2]; AGN 193109 alone, 10^−10 to 10^−6 M): did not substantially alter the growth rate of the RPE cells
RPE cell proliferation ([2]; dexamethasone 10^−11 to 10^−6M with 10^−8 or 10^−6M AGN 193109): repressed RPE cell proliferation to an extent that approximated the inhibition caused by treatment with ATRA
RPE cell proliferation ([2]; thyroid hormone 10^−11 to 10^−6M with AGN 193109 10^−8 or 10^−6M): inhibited RPE cell proliferation in a thyroid hormone dependent manner
RAR-γ-VP-16 activity at the ΔMTV-TREp-Luc reporter (RAR-γ-VP-16): inhibited
